Assay: in vitro
Settings: human, hela cells, % viability

Row | SMILES | viability at 28.5 h, 10 µM [%] | viability at 28.5 h, 10 µM (bulk resorufin, single well) [%]
1 | CCCC(=O)c1ccc(S(=O)(=O)N2CCCN(Cc3ccc(F)c(C(F)(F)F)c3)CC2)cc1 [CBK062918] | 93 | –
2 | CCOc1ccccc1OCC(=O)NN [CBK261782] | 93.2 | –
3 | CC(=O)Nc1ccc(NC(=O)C2COc3ccccc3O2)cc1C (stereo not shown) [CBK269898] | 99.1 | –
4 | COCCn1c(CO)nnc1[C@H]1C[C@@H](NC(=O)c2ccc(O)c(F)c2)C1 [CBK307132] | 74.1 | –
5 | NC(=O)c1cccc(-n2ncc(-c3cccnc3)n2)c1 [CBK112806] | 81.6 | –
6 | Cc1cc(NC(=O)Cc2ccsc2)c2ccccc2n1 [CBK116259] | 89.4 | –
7 | CNC(=O)CSc1nc2cc(Cl)ccc2c(=O)n1CC1CCCO1 (stereo not shown) [CBK305937] | 86.9 | –
8 | CC1=C[C@@H](CNC(=O)c2ccccc2)[C@H](C(C)C)C[C@H]1CC(=O)O [CBK289213] | 102 | –
9 | COc1ccc(C(=O)N2CCC3(CC2)NC(=O)c2cc(C)ccc2O3)cc1C [CBK166277] | 89 | –
10 | COc1ccc(OC)c(-n2cnc3c2NC(=O)CC3c2ccccc2Cl)c1 (stereo not shown) [CBK287983] | 91.1 | –
11 | COc1ccc(-c2cnc(N)c(-c3ccc(C(=O)NCCO)cc3)n2)cn1 [CBK064147] | 95.6 | –
12 | COc1ccc(OCC(=O)Nc2cc3oc4ccccc4c3cc2OC)cc1 [CBK262608] | 88.5 | –
13 | COc1cccc(-n2nnc3c(SCC(N)=O)ncnc32)c1 [CBK287543] | 75 | –
14 | Cn1cc(C(=O)NCC(c2ccc(F)cc2)N2CCCC2)ccc1=O (stereo not shown) [CBK282843] | 87.4 | –
15 | Cc1sc2nc(SCC(=O)NCCO)nc(N)c2c1C [CBK264423] | 109 | –
16 | Cc1cc(C)n(CC(=O)N2CCNCC2c2cccc(Cl)c2)n1 (stereo not shown) [CBK304116] | 92.7 | –
17 | Cc1cn(CC(=O)N2CCN(C(=O)c3ccco3)CC2)c(=O)[nH]c1=O [CBK144472] | 87.7 | –
18 | CCOC(=O)c1cc(Cl)cnc1C1CCN(C(=O)C2CC2)CC1 [CBK284810] | 94.5 | –
19 | O=C(N/N=C\c1ccc(OCc2ccccc2)cc1)C1COc2cc3ccccc3cc2O1 (stereo not shown) [CBK262764] | 95.6 | –
20 | COc1cc(-c2nnc(NC(=O)c3ccc(C)cc3)o2)cc(OC)c1OC [CBK287699] | 92.2 | –
21 | CCOC(=O)C1CCCN(CCC(=O)Nc2cccc(F)c2)C1 (stereo not shown) [CBK264275C] | 107 | –
22 | CCOC(=O)c1c(NC(=O)c2ccccc2C(=O)O)sc2c1CCCC2 [CBK116364] | 113 | –

Row | SMILES | viability at 28.5 h, 10 µM [%] | viability at 28.5 h, 10 µM (bulk resorufin, single well) [%]
23 | Cn1c(=O)n(C)c2cc(CNC(=O)COCC3CCCCO3)ccc21 (stereo not shown) [CBK307061] | 109 | –
24 | Cc1cc(C(=O)Nc2nncs2)c2ccc(F)cc2n1 [CBK297738] | 85.3 | –
25 | Cc1ccc(NC(=O)CSc2nnc(C(O)c3ccccc3)n2-c2ccccc2)c(C)c1 (stereo not shown) [CBK266072] | 106 | –
26 | O=C(N/N=C/c1ccc(Cl)cc1Cl)c1nc(-c2ccccc2)cc(-c2ccccc2)n1 [CBK262814] | 90.1 | –
27 | CC1CCN(S(=O)(=O)c2cccc3c(S(=O)(=O)N4CCC(C)CC4)cccc23)CC1 [CBK262071] | 98.2 | –
28 | O=C(O)c1cccc(NS(=O)(=O)c2ccc(-c3cnco3)cc2)c1 [CBK155726] | 97.4 | –
29 | COc1cc(C)nc(NN)n1 [CBK262078] | 108 | –
30 | Cc1c(C(=O)O[C@H]2C[C@@H](c3ccc(F)cc3)N(C)C2=O)cnn1C [CBK283616] | 103 | –
31 | CCCC/C=C/c1cn2ccnc2c(Nc2cccc(OCC(=O)N(C)C)c2)n1 [CBK066185] | 108 | –
32 | CC1CC(=O)C2C=C(c3ccc(Br)cc3)NN=C2C1 (stereo not shown) [CBK021352] | 91.8 | –
33 | Cc1ccc2[nH]c(SCc3nc(O)c4ccccc4n3)nc2c1 [CBK269908] | 84 | –
34 | Cc1ccccc1NS(=O)(=O)c1cc(C(=O)Nc2ccc(S(=O)(=O)N3CCCC3)cc2)ccc1C [CBK269004] | 92.9 | –
35 | C[C@@H](c1ccccc1)n1c(=O)[nH]c2ncc(-c3cccc4ncccc34)nc21 [CBK064394] | 116 | –
36 | O=C(NCC(c1ccccc1)N1CCOCC1)c1cnc(-c2ccc(F)cc2)c(-c2ccco2)c1 (stereo not shown) [CBK037531] | 95.7 | –
37 | Clc1ccc(Nc2ncnc3ccccc23)cc1 [CBK072625] | 86.1 | –
38 | O=C(c1cc(C2CC2)on1)N1CCc2ncc(Cl)cc2C1 [CBK284855] | 106 | –
39 | COc1cc(C(c2c[nH]c3ccccc23)c2c[nH]c3ccccc23)c(Br)cc1OC(C)=O [CBK266051] | 107 | –
40 | Cc1cc(C)cc(C(=O)N(CCc2ccccc2)C2CC3CCC(C2)N3C)c1 (stereo not shown) [CBK262612C] | 83.7 | –
41 | Cc1ccc(C(=O)N2CCN(Cc3ccccc3)CC2)cn1 [CBK200170] | 93.6 | –
42 | CC(=O)N1CCC2(CC1)CC(O)c1cc(C)c(C)cc1O2 (stereo not shown) [CBK282826] | 107 | –
43 | Cc1cccc(OCC2CCCN(C(=O)C3(Cn4cccn4)CC3)C2)c1 (stereo not shown) [CBK306578] | 102 | –
44 | CN1CCN(c2nc(-c3cccc4ncccc34)cnc2N)CC1 [CBK063465] | 107 | –

Row | SMILES | viability at 28.5 h, 10 µM [%] | viability at 28.5 h, 10 µM (bulk resorufin, single well) [%]
45 | C[C@]12CN(Cc3ccccc3)C[C@H]1CNc1ccccc1C(=O)N2 [CBK282932] | 94.1 | –
46 | Cc1cc(CC(=O)N2CCN(C(=O)c3ccco3)CC2)on1 [CBK144465] | 96.3 | –
47 | c1ccc(Oc2ccccc2-c2cc(NCCc3c[nH]cn3)ncn2)cc1 [CBK037845] | 82.9 | –
48 | O=C(CCCN1C(=O)c2cccc3cccc(c23)C1=O)NO [CBK261092] | 92 | –
49 | CS(=O)(=O)N1CCc2cc(-c3cn4ccccc4n3)ccc21 [CBK285190] | 85.6 | –
50 | c1csc(-c2nccnc2NCCc2ccncc2)c1 [CBK036764] | 108 | –
51 | CCc1nc2c(OCCCN(C)S(C)(=O)=O)cccn2c1N(C)C(=O)c1ccco1 [CBK147435] | 95 | –
52 | CN1CCN(C)C(COc2ccc(C(F)(F)F)cn2)C1 (stereo not shown) [CBK113288] | 96.8 | –
53 | CCc1ccc(CNC(=O)Cn2nnnc2-c2ccc(CN3CCC(C)CC3)cn2)cc1 [CBK153930C] | 85.6 | –
54 | Cc1ccc(C(=O)C2=C(O)C(=O)N(Cc3cccnc3)C2c2cccc(Oc3ccccc3)c2)o1 (stereo not shown) [CBK264619] | 96.3 | –
55 | Cc1ccc(SC(C)C(=O)Nn2cnnc2)cc1 (stereo not shown) [CBK268570] | 93.3 | –
56 | O=C(CNCc1ccc2c(c1)OCO2)NCc1ccc2c(c1)OCO2 [CBK074763] | 86.8 | –
57 | CC1CCN(Cc2c(-c3cccnc3)[nH]c3cccnc23)CC1 [CBK281494] | 98.8 | –
58 | O=C(Nc1ccc(-c2nnc(-c3ccco3)o2)cc1)C(c1ccccc1)c1ccccc1 [CBK263452] | 106 | –
59 | Cc1nccn1CCCNC(=O)c1cccc(N2CCCCC2)c1 [CBK281646] | 91.4 | –
60 | FC(F)(F)c1ccc(CN2CCC(Oc3nccnc3OC3CCCCC3)CC2)cc1 [CBK082859T] | 92.1 | –
61 | Cc1ccc(S(=O)(=O)Cc2ccc(C(=O)NCc3ccco3)cc2)cc1 [CBK268630] | 105 | –
62 | Clc1ccc(-c2c[nH]c([C@@H]3COCCN3Cc3c[nH]cn3)n2)cc1 [CBK289316] | 105 | –
63 | CCC(C(=O)c1c[nH]c2ccc(OC)cc12)N(C)C (stereo not shown) [CBK022923] | – | 96
64 | FC(F)(F)c1cccc(OCc2ccc(-c3ccccc3)cc2)n1 [CBK115836] | 92.1 | –
65 | O=C(Oc1ccccc1)c1cc(S(=O)(=O)N2CCOCC2)c(Cl)cc1Cl [CBK269656] | 83.5 | –
66 | CCC1(CC)OC(NC23CC4CC(CC(O)(C4)C2)C3)=NC1=O [CBK107938] | 99.1 | –

Row | SMILES | viability at 28.5 h, 10 µM [%] | viability at 28.5 h, 10 µM (bulk resorufin, single well) [%]
67 | CCOc1cc(/C=N/NC(=O)CSc2nc(C)cc(C)n2)ccc1O [CBK262405] | 96.1 | –
68 | Cc1cn(C2CC(O)C(CNC(=O)C(F)(F)F)O2)c(=O)[nH]c1=O (stereo not shown) [CBK201200] | 98 | –
69 | COc1cc(CNc2nccnc2-c2cccnc2)cc(OC)c1 [CBK038061] | 105 | –
70 | COc1cc(OC)c(NC(=O)CSc2ccccn2)cc1Cl [CBK267303] | 92.5 | –
71 | COCOc1ccc(-c2nc(-c3cccnc3)cnc2N)cc1 [CBK063999] | 93.6 | –
72 | Cc1cc(C)c2c(c1)COC1(CCN(Cc3ccccc3)CC1)O2 [CBK061572] | 102 | –
73 | O=C(Cc1c[nH]c2ccccc12)Nc1cccnc1N1CCNCC1 [CBK028265T] | 105 | –
74 | COc1ccc(-c2nc3c(c(=S)[nH]2)CCCC3)cc1 [CBK020440] | 99.2 | –
75 | Cc1c[n+]2ccsc2n1Cc1ccccc1C#N [CBK260951B] | 116 | –
76 | Cc1cc(/C=C(/C#N)c2ccc([N+](=O)[O-])cc2)c(C)n1-c1ccc(S(N)(=O)=O)cc1 [CBK266737] | 108 | –
77 | c1ccc(OCCN2CCC3(C2)NCCc2[nH]ccc23)cc1 (stereo not shown) [CBK084595T] | 90.9 | –
78 | NC(=O)CN1CC2(CCN(CCCn3c(=O)[nH]c4ccccc43)CC2)c2ccccc21 [CBK126787] | 89.6 | –
79 | CC(=O)Nc1ccc(S(=O)(=O)Nc2ccnc(N3CCNCC3)n2)cc1 [CBK000363C] | 92.5 | –
80 | NC(=O)CSc1nnc(-c2ccncc2)[nH]1 [CBK026179] | 107 | –
81 | COc1ccccc1N1CCN(C(=O)c2c(Cl)cnn2C)CC1 [CBK288247] | 94.3 | –
82 | COc1ccc(CN(/N=N/c2nonc2C)c2nonc2C)cc1[N+](=O)[O-] [CBK262386] | 99.3 | –
83 | Cc1ccc2c(c1)C1(CC(=O)N(C)C1=O)C(=O)N2CCOc1cccc2c1OCCO2 (stereo not shown) [CBK075529] | 99.6 | –
84 | Nc1ncc(-c2ccc(C(=O)N3CCOCC3)cc2)cc1C(=O)Nc1ccc(C(F)(F)F)cc1 [CBK160204] | 90.6 | –
85 | Cc1nc(NC(=O)C2Cc3ccccc3S2)sc1-c1n[nH]c(=S)n1C (stereo not shown) [CBK295337] | 98 | –
86 | OCc1ccccc1-c1nccnc1NCc1ccco1 [CBK037098] | 94.5 | –
87 | S=C(NCCc1ccccc1)Nc1ccc2c(c1)OCCO2 [CBK267048] | 110 | –
88 | O=S(=O)(Nc1nnn[nH]1)c1ccc(-c2cnco2)s1 [CBK062394] | 109 | –
